In article PMC9823097, “Dysregulation of PRMT5 in chronic lymphocytic leukemia promotes progression with high risk of Richter’s transformation” (Nature Communications, 2023):
Values joined by “and” are separate entries in the source; they are usually repeats but may differ in a detail not shown here. Equal entries are not always repeated. “Also recorded” adds a separate entry of the source.

Key:
[1] = biological target: recombinant human PRMT5/MEP50 (Homo sapiens, UniProt O14744); experiment: Filtration binding assay with recombinant human PRMT5/MEP50 (biochemical potency)
Sequence of recombinant human PRMT5/MEP50 (O14744 whole entry): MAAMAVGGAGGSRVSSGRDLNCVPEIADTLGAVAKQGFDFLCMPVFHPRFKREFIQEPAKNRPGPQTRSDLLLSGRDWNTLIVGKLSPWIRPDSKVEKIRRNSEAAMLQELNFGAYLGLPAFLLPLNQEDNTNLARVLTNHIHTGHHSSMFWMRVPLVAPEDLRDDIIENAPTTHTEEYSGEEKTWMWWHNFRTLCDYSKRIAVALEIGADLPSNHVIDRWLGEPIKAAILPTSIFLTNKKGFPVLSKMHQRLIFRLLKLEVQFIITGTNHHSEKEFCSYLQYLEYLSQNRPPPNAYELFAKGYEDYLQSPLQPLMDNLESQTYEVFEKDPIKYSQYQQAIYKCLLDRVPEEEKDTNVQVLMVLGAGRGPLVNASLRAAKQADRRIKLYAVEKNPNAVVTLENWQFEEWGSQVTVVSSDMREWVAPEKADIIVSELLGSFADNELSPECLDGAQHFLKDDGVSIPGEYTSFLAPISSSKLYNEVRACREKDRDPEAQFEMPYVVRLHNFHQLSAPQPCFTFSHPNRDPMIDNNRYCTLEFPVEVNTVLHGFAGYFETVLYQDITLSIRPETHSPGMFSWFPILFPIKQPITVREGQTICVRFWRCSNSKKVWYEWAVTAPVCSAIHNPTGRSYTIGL
Sequence of recombinant human PRMT5/MEP50 (Q9BQA1 whole entry partner): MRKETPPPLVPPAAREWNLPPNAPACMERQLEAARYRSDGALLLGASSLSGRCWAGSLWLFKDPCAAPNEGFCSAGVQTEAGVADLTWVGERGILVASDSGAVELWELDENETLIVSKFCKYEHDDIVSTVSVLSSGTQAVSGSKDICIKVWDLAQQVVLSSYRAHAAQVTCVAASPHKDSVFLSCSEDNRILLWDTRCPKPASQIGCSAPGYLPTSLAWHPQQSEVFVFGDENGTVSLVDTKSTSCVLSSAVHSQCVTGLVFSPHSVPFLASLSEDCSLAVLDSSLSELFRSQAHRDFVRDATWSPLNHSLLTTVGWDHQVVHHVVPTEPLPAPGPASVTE
Procedure: For biochemical potency and selectivity, PRT382 was solubilized in 100% DMSO and diluted serially threefold. […] Standard reactions were performed in a total volume of 30 μl in assay buffer, with 300 nM histone H4-based AcH4-23 (Anaspec: AS-65002) as substrate. To this was added the PRMT5/MEP50 complex diluted to provide a final assay concentration of 2.5 nM, and the compounds were allowed to preincubate for 20 min at 37 °C. The reaction was initiated by adding S-[3 H-methyl]-adenosyl-L-methionine (PerkinElmer: NET155001MC) to a final concentration of 1 μM. Following a 30 min of incubation at 37 °C, the reaction was stopped by adding 25 μL of 8 M Guanidine HCl. To each reaction, 150 µL of SPA beads suspension (Perkinelmer: RPNQ0012) was added and incubated while shaking at room temperature for 30 min. The plate was centrifuged at 100 xg for 30 s before reading in a scintillation counter. IC50 values were determined by fitting the data to with Hill Slope using GraphPad Prism software (v9.2.0).

[2] = system: Granta-519 lymphoma cell line; experiment: Reducing sDMA assay (western blot of cellular sDMA) in Granta-519; assay type: cell-based; conditions: for sDMA signal normalized to β-Actin and DMSO control: DMSO = 100
Procedure: For western blot analysis of Cellular sDMA in Granta-519, one day before the experiment, Granta-519 cells were passaged to a density of 0.5 × 10^6 cells/ml. The next day, Granta-519 cells were spun down at 1500 rpm for 4 min, resuspended in fresh medium at 0.5E6 cells/ml and 3 mL of culture (1.5E6 cells) were seeded into a six-well plate. Eight-point, threefold serial dilutions of compound working stocks were added to cells (3 µl, 1:1000 dilution, DMSO concentration was 0.1%; final top concentration at 1 µM) and incubated for 3 days. Cells incubated with DMSO was used as vehicle control. Cells were harvested 3 days later, resuspended in 15 µL PBS, lysed in 4% SDS, and homogenized by passing through homogenizer column (Omega Biotek, Catalog #: HCR003). Total protein concentrations were determined by BCA assay (ThermoFisher Scientific, Catalog #: 23225). Lysates were mixed with 5× Laemmli buffer and boiled for 5 min. Forty micrograms of total protein was separated on SDS-PAGE gels (Bio-Rad, catalog #: 4568083, 4568043), transferred to PVDF membrane, and blocked with 5% dry milk (Bio-Rad, Catalog #: 1706404) in TBS with 0.1% v/v Tween20 (TBST) for 1 h at room temperature (RT), and incubated with primary antibodies (sDMA: Cell signaling, Catalog #: 13222, 1:3,000; β-actin: sigma, Catalog #: A2228, 1:5000) in 5% dry milk in TBST at 4 °C overnight. The next day, membranes were washed with TBST, 5 × 5 min, and incubated with HRP conjugated seconded antibody (GE Healthcare; Catalog #: NA9341 ML, NA931-1ML; 1:5000) for 2 hours at RT, followed by 5 × 5 min washes with TBST, and incubation with ECL substrates (Bio-Rad, Catalog #: 1705061, 1705062). The chemiluminescent signal was captured with Fluochem HD2 imager (Proteinsimple). SmD3me2s bands were quantified by ImageJ. Signals were normalized to β-Actin and DMSO control. IC50 values were calculated using Graphpad Prism (v9.2.0) ([Inhibitor] vs. normalized response – Variable slope).

CCMCL-1 = experiment: Anti-proliferative activity, MTS assay, CCMCL-1; assay type: cell-based; conditions: MCL, read-out: PRT382 IC50 (anti-proliferative)
Procedure: (§1) Cell proliferation was assessed via MTS (3-[4,5-dimethylthiazol-2-yl]-5-[3-carboxymethoxyphenyl]-2-[4-sulfophenyl]-2H-tetrazolium) assay (Sigma), using the tetrazolium dye […]. Cell apoptosis was evaluated by Annexin V-FITC or PE and propidium iodide (PI) staining using FC500 cytometer (Beckman-Coulter, Indianapolis, IN) following the manufacturer’s procedure (BD Pharmingen, Billerica, MA)[55]. For cell cycle analysis, cells were fixed with cold ethanol overnight and then stained before analysis with 30 μg/mL propidium iodide (Invitrogen) and 200 μg/mL RNase (Sigma-Aldrich) in 0.1 % v/v Triton X-100 (Sigma-Aldrich). Cell cycle data analysis was performed using ModFit LT software (Verity Software House, Topsham, ME).

U-2932 = experiment: Anti-proliferative activity, MTS assay, U-2932; assay type: cell-based; conditions: Homo sapiens, U2932, DLBCL, read-out: PRT382 IC50 (anti-proliferative)
Procedure: as §1

KARPAS-422 = experiment: Anti-proliferative activity, MTS assay, KARPAS-422; assay type: cell-based; conditions: Homo sapiens, DLBCL, read-out: PRT382 IC50 (anti-proliferative)
Procedure: as §1

[3] = Pharmacokinetics in dogs (clearance, oral bioavailability); assay type: in vivo
primary CLL cells = experiment: Proliferation of primary IGHV-U CLL cells, MTS assay, 72 h, with and without CpG; assay type: cell-based, human; conditions: for Normalized A490: +CpG, individual patients' primary CLL cells, normalized to -CpG dose 0
Source text: Our research complies with all relevant ethical regulations. De-identified human CLL cells were isolated as previously described after obtaining informed consent on protocols approved by The Ohio State University Cancer Institutional Review Board in accordance with the Declaration of Helsinki. All patients examined had CLL as defined by the 2008 IWCLL criteria. Sex and age of the patients who provided samples was not available. Human peripheral blood mononuclear cells (PBMC) were isolated from CLL patients using Ficoll density gradient centrifugation. (Ficoll-Paque Plus; Amersham Biosciences Inc, Piscataway, NJ). Enriched B-cell fractions were prepared using the RosetteSep™ B-cell kit (STEMCELL Technologies, Vancouver, Canada) according to the manufacturer’s instructions. Isolated cells were incubated in RPMI 1640 media (Invitrogen, Grand Island, NY) supplemented with 10% heat-inactivated fetal bovine serum (Sigma-Aldrich, St. Louis, MO), 2 mM L-glutamine (Invitrogen), and 100 U/mL penicillin/100 μg/mL streptomycin (Sigma-Aldrich) at 37 °C in an atmosphere of 5% CO2. The purity of enriched populations of CLL was routinely checked using CD19-PE (BD Pharmingen, Billerica, MA) staining by flow cytometry.
as §1

## CON=c1nc[nH]c2c1ccn2[C@@H]1O[C@H]([C@H](O)c2ccc(Cl)c(Cl)c2)[C@@H](O)[C@H]1O.Cl [PRT382, (2 R,3 S,4 R,5 R)-2-[(R)-(3,4-dichlorophenyl)-hydroxy-methyl]-5-[(4Z)-4-methoxyimino-1H-pyrrolo[2,3-d]pyrimidin-7-yl]tetrahydrofuran-3,4-diol hydrochloride]
[1]; 508.1 pM
  PRT382 dose-response signal (Figure 6C; DMSO = 100.515): 76.3419
[1]; 1.52416e-9 M
  PRT382 dose-response signal (Figure 6C; DMSO = 100.515): 63.1814
[1]; 4.57247e-9 M
  PRT382 dose-response signal (Figure 6C; DMSO = 100.515): 38.5693
[1]; 1.37174e-8 M
  PRT382 dose-response signal (Figure 6C; DMSO = 100.515): 22.7886
[1]; 4.11523e-8 M
  PRT382 dose-response signal (Figure 6C; DMSO = 100.515): 12.7118
[1]; 1.23457e-7 M
  PRT382 dose-response signal (Figure 6C; DMSO = 100.515): 6.679
[1]; 3.7037e-7 M
  PRT382 dose-response signal (Figure 6C; DMSO = 100.515): 2.863
[1]; 1.11111e-6 M
  PRT382 dose-response signal (Figure 6C; DMSO = 100.515): 1.261
[1]; 3.33333e-6 M
  PRT382 dose-response signal (Figure 6C; DMSO = 100.515): 0.4291
[1]; 1e-5 M
  PRT382 dose-response signal (Figure 6C; DMSO = 100.515): 0.1164
[2]; Conc. 0.000457247 µM
  sDMA signal normalized to β-Actin and DMSO control: 88.6989
[2]; Conc. 0.00137174 µM
  sDMA signal normalized to β-Actin and DMSO control: 97.8569
[2]; Conc. 0.00411523 µM
  sDMA signal normalized to β-Actin and DMSO control: 93.6002
[2]; Conc. 0.0123457 µM
  sDMA signal normalized to β-Actin and DMSO control: 75.2291
[2]; Conc. 0.037037 µM
  sDMA signal normalized to β-Actin and DMSO control: 39.1378
[2]; Conc. 0.111111 µM
  sDMA signal normalized to β-Actin and DMSO control: 15.0036
[2]; Conc. 0.333333 µM
  sDMA signal normalized to β-Actin and DMSO control: 6.086
[2]; Conc. 1 µM
  sDMA signal normalized to β-Actin and DMSO control: 6.863
[2]; Homo sapiens, 72 h, Granta-519, 3 days
  IC50: 27 nM
CCMCL-1
  IC50: 14 nM
U-2932
  IC50: 12 nM
KARPAS-422
  IC50: 23 nM
[3]
  clearance: low
[3]; dog, in vivo, po, read-out: oral bioavailability (F%)
  bioavailability: 70 to 80%
Primary CLL cells; PRT382 0.001 μM
  Normalized A490: 3.307 and 4.074 and 2.806 and 1.916 and 4.967 and 4.310 and 1.926 and 2.473 and 1.595 and 1.924
Primary CLL cells; PRT382 0.010 μM
  Normalized A490: 3.718 and 3.941 and 2.668 and 1.775 and 4.704 and 4.675 and 1.969 and 2.468 and 1.587
Primary CLL cells; PRT382 0.100 μM
  Normalized A490: 3.022 and 3.734 and 2.874 and 1.799 and 4.461 and 3.405 and 1.501 and 2.532 and 1.373
Primary CLL cells; PRT382 1.000 μM
  Normalized A490: 2.691 and 3.811 and 2.801 and 1.761 and 4.387 and 2.568 and 1.496 and 2.524 and 1.293
Primary CLL cells; PRT382 10.000 μM
  Normalized A490: 1.699 and 2.509 and 3.622 and 2.474 and 1.561 and 4.249 and 2.269 and 1.136 and 2.309
Primary CLL cells; n = 12 IGHV-U patients, 72 h, with and without TLR9 stimulation (CpG)
  proliferative potential of primary CLL cells: Dose-dependent decrease in proliferation; also recorded: dose-dependent reduction in proliferative potential
